Measurements: patent US8618303B2, “Pyrrolidine derivatives” (Hoffmann-La Roche Inc., priority 2011, dated 2013)
Read-outs that look alike come from different tables or passages of the source.

Assays:
human NK3 receptor = human NK3 receptor (Homo sapiens (Human), UniProt P29371); experiment: [3H]SR142801 competition binding assay
Experimental: hNK3 receptor binding experiment were performed using [^3H]SR142801 (Catalog No. TRK1035, specific activity: 74.0 Ci/mmol, Amersham, GE Healthcare UK limited, Buckinghamshire, UK) and membrane isolated from HEK293 cells transiently expressing recombinant human NK3 receptor. After thawing, the membrane homogenates were centrifuged at 48,000×g for 10 min at 4° C., the pellets were resuspended in the 50 mM Tris-HCl, 4 mM MnCl2, 1 μM phosphoramidon, 0.1% BSA binding buffer at pH 7.4 to a final assay concentration of 5 μg protein/well. […] At the end of the incubation, membranes were filtered onto unitfilter (96-well white microplate with bonded GF/C filter preincubated 1 h in 0.3% PEI+0.3% BSA, Packard BioScience, Meriden, Conn.) with a Filtermate 196 harvester (Packard BioScience) and washed 4 times with ice-cold 50 mM Tris-HCl, pH 7.4 buffer. Nonspecific binding was measured in the presence of 10μM SB222200 for both radioligands. The radioactivity on the filter was counted (5 min) on a Packard Top-count microplate scintillation counter with quenching correction after addition of 45 μl of microscint 40 (Canberra Packard S.A., Ziirich, Switzerland) and shaking for 1 h. Inhibition curves were fitted according to the Hill equation: y=100/(1+(x/IC50), where nH=slope factor using Excel-fit 4 software (Microsoft). IC50 values were derived from the inhibition curve and the affinity constant (Ki) values were calculated using the Cheng-Prussoff equation Ki =IC50/(1+[L]/KD) where [L] is the concentration of radioligand and KD is its dissociation constant at the receptor, derived from the saturation isotherm. All experiments were performed in duplicate and the mean±standard error (SEM) of the individual Ki values was calculated.

[1] = phase II trial; cited from earlier work

Sequence of human NK3 receptor (P29371 whole entry): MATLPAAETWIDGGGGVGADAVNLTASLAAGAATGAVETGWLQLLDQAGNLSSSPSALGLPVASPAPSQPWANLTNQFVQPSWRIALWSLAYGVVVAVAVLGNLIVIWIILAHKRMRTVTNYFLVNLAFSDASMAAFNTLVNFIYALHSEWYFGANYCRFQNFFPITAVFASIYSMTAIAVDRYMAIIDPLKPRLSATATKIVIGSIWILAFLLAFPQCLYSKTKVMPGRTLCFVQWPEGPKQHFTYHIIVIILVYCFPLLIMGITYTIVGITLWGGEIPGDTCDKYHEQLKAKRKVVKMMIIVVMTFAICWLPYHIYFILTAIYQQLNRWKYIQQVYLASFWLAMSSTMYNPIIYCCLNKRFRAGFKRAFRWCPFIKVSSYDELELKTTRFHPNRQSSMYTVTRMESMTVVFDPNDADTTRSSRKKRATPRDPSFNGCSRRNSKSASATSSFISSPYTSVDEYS

COc1ccc(N2CCC(C(=O)N3C[C@@H](N(C)C(=O)Oc4ccc(F)cc4)[C@](C)(c4ccc(Cl)cc4)C3)CC2)nn1 (racemic) [Example 35, rac-{(3S,4R)-4-(4-Chloro-phenyl)-1-[1-(6-methoxy-pyridazin-3-yl)-piperidine-4-carbonyl]-4-methyl-pyrrolidin-3-yl}-methyl-carbamic acid 4-fluoro-phenyl ester]
Ki (human NK3 receptor): 0.0213 µM

CN(C(=O)Oc1ccc(F)cc1)[C@@H]1CN(C(=O)c2ccc(N3CCCCC3=O)cc2)C[C@@]1(C)c1ccc(Cl)cc1 (racemic) [Example 36, rac-{(3S,4R)-4-(4-Chloro-phenyl)-4-methyl-1-[4-(2-oxo-piperidin-1-yl)-benzoyl]-pyrrolidin-3-yl}-methyl-carbamic acid 4-fluoro-phenyl ester]
Ki (human NK3 receptor; membranes from HEK293 cells transiently expressing recombinant human NK3 receptor, [3H]SR142801, Ki from IC50 by Cheng-Prussoff, read-out: Ki (uM) hNK3): 0.997 µM

CN(C(=O)Oc1ccc(F)cc1)[C@@H]1CN(C(=O)C2CCN(C3CCCCC3)CC2)C[C@@]1(C)c1ccc(Cl)cc1 [Example 25, [(3S,4R)-4-(4-Chloro-phenyl)-1-(1-cyclohexyl-piperidine-4-carbonyl)-4-methyl-pyrrolidin-3-yl]-methyl-carbamic acid 4-fluoro-phenyl ester]
Ki (human NK3 receptor): 0.0915 µM

CC(=O)N(C)C1(c2ccccc2)CCN(CCC[C@]2(c3ccc(Cl)c(Cl)c3)CCCN(C(=O)c3ccccc3)C2)CC1 [SR 142,801, Osanetant]
activity on negative symptoms of schizophrenia [1]: inactive in the treatment of negative symptoms | activity on positive symptoms of schizophrenia [1]: active on positive symptoms of schizophrenia
